Test results: ChEMBL document CHEMBL5303304, “EUbOPEN Chemogenomics Library - IncuCyte” (2023)

Key:
Type in all cases: toxicity, cell-based
HEK-293T = assay: Incucyte cell viability with HEK293T; details: human, 10 µM, compound concentration 10 uM
Fibroblast = assay: Incucyte cell viability with human fibroblast; details: 10 µM, compound concentration 10 uM
U2OS = assay: Incucyte cell viability with U2OS; details: human, 10 µM, compound concentration 10 uM
Also: unitless GR value; below 1 slowed growth and below 0 cell loss.

Row | SMILES | Growth Rate (HEK-293T; 6 h, replicate number 1) | Growth Rate (HEK-293T; 12 h, replicate number 1) | Growth Rate (HEK-293T; 18 h, replicate number 2) | Growth Rate (HEK-293T; 24 h, replicate number 2) | Growth Rate (Fibroblast; 6 h, replicate number 2) | Growth Rate (Fibroblast; 24 h, replicate number 2) | Growth Rate (U2OS; 0 h, replicate number 1) | Growth Rate (U2OS; 0 h, replicate number 2) | Growth Rate (U2OS; 6 h, replicate number 1) | Growth Rate (U2OS; 24 h, replicate number 1) | Growth Rate (HEK-293T; 6 h, replicate number 2) | Growth Rate (HEK-293T; 12 h, replicate number 2) | Growth Rate (HEK-293T; 18 h, replicate number 1) | Growth Rate (HEK-293T; 24 h, replicate number 1) | Growth Rate (Fibroblast; 6 h, replicate number 1) | Growth Rate (Fibroblast; 12 h, replicate number 1) | Growth Rate (Fibroblast; 12 h, replicate number 2) | Growth Rate (Fibroblast; 18 h, replicate number 1) | Growth Rate (Fibroblast; 24 h, replicate number 1) | Growth Rate (U2OS; 12 h, replicate number 2) | further results
1 | CCN(C)C(=O)c1ccc2c(c1)NC(=O)/C2=C(\NC1CCN(C)CC1)c1ccccc1 | 0.43 | 0.82 | 0.82 | 0.89 | 0.61 | 0.93 | 0.88 | 0.18 | 0.68 | 0.92 |  |  |  |  |  |  |  |  |  |  | Growth Rate (Fibroblast; 0 h, replicate number 2): -0.73; Growth Rate (U2OS; 12 h, replicate number 1): 0.93
2 | COc1cc(-c2nn([C@H]3CC[C@H](N4CCN(C(C)=O)CC4)CC3)c3ncnc(N)c23)ccc1NC(=O)c1cc2ccccc2n1C | -0.95 | -0.39 | 0.59 | 0.89 | -0.77 |  | -0.86 | 0.2 | 0.32 | 0.44 | -0.96 | -0.18 | 0.38 | 0.69 | -0.52 | -0.69 | 0.45 | -0.56 | -0.45 | 0.61 | Growth Rate (Fibroblast; 0 h, replicate number 1): -1; Growth Rate (U2OS; 6 h, replicate number 2): 0.56; Growth Rate (U2OS; 12 h, replicate number 1): 0.44; Growth Rate (U2OS; 18 h, replicate number 1): 0.44; Growth Rate (U2OS; 18 h, replicate number 2): 0.95; Growth Rate (U2OS; 24 h, replicate number 2): 0.91
3 | C[C@@H]1COCCN1c1cc(=O)n2c(n1)N(Cc1cncc(Cl)c1)[C@H](C(F)(F)F)CC2 | -0.3 | 0.15 | 0.54 | 0.45 | -0.75 |  | 0.01 |  | 0.61 | 0.73 | -0.11 | 0.44 | 0.39 | 0.39 | 0.36 | 0.72 | 0.29 | 0.92 | 0.83 | 0.89 | Growth Rate (Fibroblast; 0 h, replicate number 2): -0.86; Growth Rate (U2OS; 12 h, replicate number 1): 0.92; Growth Rate (U2OS; 18 h, replicate number 1): 0.87; Growth Rate (U2OS; 18 h, replicate number 2): 0.95
4 | COc1cc2nc(C)nc(N[C@H](C)c3cc(N)cc(C(F)(F)F)c3)c2cc1O[C@H]1CCOC1 | 0.91 | 0.88 |  |  | -0.84 | 0.88 | 0.75 |  | 0.51 | 0.83 |  |  |  |  | 0.72 |  | 0.03 |  |  |  | Growth Rate (Fibroblast; 0 h, replicate number 1): -1; Growth Rate (Fibroblast; 18 h, replicate number 2): 0.65; Growth Rate (U2OS; 6 h, replicate number 2): 0.96; Growth Rate (U2OS; 18 h, replicate number 1): 0.93
5 | CNC(=O)COc1cc2cc(Nc3nc(N4CCC(C(=O)N(C)C)CC4)ncc3Cl)cc(OC)c2n(C)c1=O | 0.46 | 0.74 | 0.58 | 0.66 | 0.46 | 0.87 |  | 0.59 | 0.94 | 0.92 | 0.13 | 0.41 | 0.57 | 0.67 |  |  |  |  |  | 0.77 | Growth Rate (Fibroblast; 0 h, replicate number 2): 0; Growth Rate (U2OS; 18 h, replicate number 2): 0.87; Growth Rate (U2OS; 24 h, replicate number 2): 0.91
6 | Cn1cncc1-c1cn(-c2cccc(C(=O)Nc3cccc(C(F)(F)F)c3)c2)nn1 | -0.32 | -0.13 | 0.14 | 0.3 | 0.53 | 0.87 |  | 0.55 | 0.83 | 0.95 | -0.41 | 0.03 | 0.06 | 0.24 |  | 0.87 | 0.77 | 0.87 | 0.48 | 0.86 | Growth Rate (Fibroblast; 18 h, replicate number 2): 0.64; Growth Rate (U2OS; 18 h, replicate number 2): 0.89
7 | CSc1ccc(C[C@@H](C)C(=O)O)cc1Nc1nc(N2CC[C@H](N(C)C)C2)cc(C(F)F)c1C#N.O=C(O)C(F)(F)F | 0.25 | 0.39 | 0.51 | 0.58 |  | 0.79 |  |  | 0.8 |  |  | 0.58 | 0.43 | 0.48 | -0.12 | 0.16 | 0.34 | 0.21 | 0.3 |  | Growth Rate (Fibroblast; 0 h, replicate number 1): -1; Growth Rate (Fibroblast; 18 h, replicate number 2): 0.8
8 | Cn1nc(-c2ccc(C(N)=O)cc2)c2ccccc2c1=O | 0.11 | 0.75 | 0.55 | 0.74 |  |  |  | 0.98 | 0.58 | 0.96 | 0.45 | 0.4 | 0.73 | 0.79 | 0.25 | 0.99 | 0.65 | 0.84 | 1 | 0.97 | Growth Rate (U2OS; 12 h, replicate number 1): 0.8; Growth Rate (U2OS; 18 h, replicate number 1): 0.93
9 | Cc1cc(=O)oc2cc(NC(=O)[C@H](Cc3ccc(I)cc3)NC(=O)[C@H]3N[C@@H]4CC[C@H]3C4)ccc12.O=C(O)C(F)(F)F | -0.02 | 0.55 |  |  | -0.13 | 0.61 | -0.48 |  | 0.26 | 0.88 |  |  | 0.61 | 0.76 |  |  | 0.19 |  |  |  | Growth Rate (Fibroblast; 0 h, replicate number 1): -1; Growth Rate (Fibroblast; 18 h, replicate number 2): 0.35; Growth Rate (U2OS; 12 h, replicate number 1): 0.89; Growth Rate (U2OS; 18 h, replicate number 1): 0.97; Growth Rate (U2OS; 18 h, replicate number 2): 0.92; Growth Rate (U2OS; 24 h, replicate number 2): 0.85
10 | O=C(Nc1cccc(C(F)(F)F)c1)c1cccc(-n2cc(-c3ccco3)nn2)c1 | 0.68 | 0.8 |  |  |  |  |  | 0.15 | 0.72 | 0.9 | 0.56 | 1 | 0.67 | 0.76 | 0.82 |  |  |  | 0.97 | 0.81 | Growth Rate (Fibroblast; 0 h, replicate number 2): -0.94; Growth Rate (U2OS; 12 h, replicate number 1): 0.78; Growth Rate (U2OS; 18 h, replicate number 2): 0.95
11 | CCOC(=O)/N=C(\N)c1ccc(OCc2cccc(COc3ccc(C(C)(C)c4ccc(OC(=O)OCC)cc4)cc3)c2)cc1 | -0.49 | 0.04 | 0.08 | 0.11 | -0.28 | 0.79 |  |  | 0.84 |  | -0.42 | -0.1 | 0.49 | 0.77 | 0.42 | 0.73 | 0.87 | 0.66 | 0.41 |  | Growth Rate (Fibroblast; 0 h, replicate number 1): -0.98; Growth Rate (Fibroblast; 18 h, replicate number 2): 0.76
12 | CN1C(=O)Cc2ccc(-c3ccc(C[C@@H](C#N)NC(=O)[C@@H]4N[C@H]5CC[C@@H]4C5)c(F)c3)cc21 | 0.06 | 0.07 | 0.73 | 0.82 |  |  | 0.98 |  | 0.89 |  | 0.52 | 0.61 | 0.19 | 0.28 | 0.38 | 0.46 | 0.99 | 0.42 | 0.61 |  | 
13 | CCN1C(=O)/C(=C(\NC2CCN(C)CC2)c2ccc3c(c2)OCO3)c2cc(C(C)=O)ccc21 | 0.44 | 0.64 | 0.77 |  | 0.53 | 0.76 | 0.46 | -0.34 | 0.59 | 0.89 | 0.16 | 0.78 | 0.63 | 0.71 | 0.42 | 0.32 | 0.27 | 0.7 | 0.64 | 0.81 | Growth Rate (Fibroblast; 0 h, replicate number 1): -1; Growth Rate (Fibroblast; 18 h, replicate number 2): 0.5; Growth Rate (U2OS; 6 h, replicate number 2): 0.61; Growth Rate (U2OS; 24 h, replicate number 2): 0.95
14 | O=C(N[C@H](Cc1ccccc1)C(=O)O)c1cccc(OCc2cccnc2)c1.O=CO | 0.73 |  |  |  |  |  | 0.75 | 0.39 | 0.69 | 0.8 |  |  | 1 |  | 0.68 | 0.47 | 0.7 | 0.93 | 0.88 | 0.77 | Growth Rate (Fibroblast; 18 h, replicate number 2): 0.81; Growth Rate (U2OS; 6 h, replicate number 2): 0.67; Growth Rate (U2OS; 12 h, replicate number 1): 0.66; Growth Rate (U2OS; 18 h, replicate number 2): 0.98; Growth Rate (U2OS; 24 h, replicate number 2): 0.86
